Experimental data reported in patent publication US20200368166A1, “Oral Formulations And Uses Thereof” (Eustralis Pharmaceuticals Limited (Trading As Pressura …, priority 2018, published 2020).
Several values for one entry are separate records, joined by “and”; a condition that tells them apart may be missing. Identical values can stand only once.

What was measured:
Assay type in all cases: physicochemical
[1] = pH of the API
Text: Compound (Ia) HCl (API) is an acidic compound with an approximate pH of 2.5. Compound of Formula (I), in particular compound (Ia) as shown below, is used in all examples, and in particular the 2HCl salt of compound (Ia) (Compound (Ia) 2HCl).

[2] = Particle size distribution (Malvern Mastersizer)
Procedure: The particle size distribution of compound (Ia) 2HCl (API) was determined using a Malvern Mastersizer. D(0.1) means that 10% of the sample is present as particles smaller than this size. D(0.5) means that 50% of the sample is present as particles smaller than this size. D(0.9) means that 90% of the sample is present as particles smaller than this size.

[3] = Bulk and tap density, Carr's index
Procedure: Measurement of the bulk and tap density provides information on the flow properties and compressibility of the API. The bulk density is measured as the density of the material as it is “poured” or passively filled into a measuring vessel, whereas the tap density is a limiting density attained after “tapping in” the material. A Carr's index greater than 25 is considered to be an indication of poor flowability, and below 15, of good flowability.
Measurement of the bulk and tap density provides information on the flow and compressibility of the blend. Bulk and tap density and the subsequent Carr's index were determined on the Formulation 5 blend and the results are given in Table 13.

[4] = Solubility in dissolution media (sink conditions test); details: 37° C.
Procedure: Selection of the dissolution medium is based on the solubility data and the dose range in order to ensure that sink conditions are met. The term ‘sink conditions’ is defined as the volume of medium at least greater than three times that required to form a saturated solution of drug substance.
The sink conditions test was performed as per USP 38 <1092> in the following dissolution medium: • 1. HCl 0.01 N, • 2. Buffer pH 6.8, • 3. Water.
Solubility determinations were performed on 75 mg of Compound (Ia) HCl dissolved in 250 mL of different media at 37° C. and stirred slightly. The λmax was determined by UV scan between 200-400 nm. Refer to Table 18 for the results.

[5] = Intrinsic dissolution rate (IDR) of compressed disc; details: 200 mg disc, 100 rpm, 37° C.
Procedure: The IDR is determined by monitoring the drug release rate of a compressed disc of the pre-formulated drug. The IDR is independent of formulation effects and measures the intrinsic properties of the drug and salts as a function of dissolution media effects such as pH and ionic strength. A comparison of the IDR of the drug in water with that obtained in acid and alkali will provide a measure of the drug's ability to control its immediate microenvironment.
The IDR was determined by preparing a compressed disc containing 200 mg of Compound (Ia) 2HCl using slow compression. All metal surfaces were pre-lubricated using 4 drops of a 5% w/v solution of stearic acid in chloroform. The solvent was allowed to evaporate, the Compound (Ia) 2HCl added and the sample slowly compressed to 6 tonne. This pressure was maintained for 4 minutes to ensure adequate compression.
The discs were then rotated at 100 rpm, 25 mm from the bottom of a 1 litre flat bottomed dissolution vessel containing 1 litre of fluid maintained at 37° C. Manual sampling, with a sampling volume of 5 mL, was employed at 5, 10, 15, 30 and 60 minutes. The amount of drug released was then monitored, by HPLC. Compound (Ia) 2HCl was evaluated in 0.01N HCl (equivalent to gastric pH), phosphate buffer pH 6.8 (intestinal) and distilled water. Refer Table 19 for the percentage of Compound (Ia) 2HCl released.

[6] = API milled prior to GLP tablet manufacture (Table 16)

Cc1ccccc1-c1cc(N2CCN(C)CC2)ncc1C(=O)N(C)Cc1cc(C(F)(F)F)cc(C(F)(F)F)c1 [Compound (Ia) 2HCl]
approximate pH [1]: ~2.5 | Particle Size D (0.1) ([2]; API before milling (Table 1)): 8.41 μm | Particle Size D (0.5) ([2]; API before milling (Table 1)): 76.13 μm | Particle Size D (0.9) ([2]; API before milling (Table 1)): 404.59 μm | Particle Size D (0.1) [2, 6]: 1.2 μm | Particle Size D (0.5) [2, 6]: 38.6 μm | Particle Size D (0.9) [2, 6]: 133.3 μm | Bulk Density [3]: 0.63 g/mL | Carr's Index [3]: 24.29% | Tap Density [3]: 0.83 g/mL | Appearance ([4]; 75 mg in 250 mL 0.01N Hydrochloric Acid (pH 2.0), full cell: Clear, homogeneous, translucent to light yellow.): Clear, | Appearance ([4]; 75 mg in 250 mL Phosphate Buffer (pH 6.8), full cell: White, turbid, heterogeneous liquid.): White, turbid, | Time to Dissolve ([4]; 75 mg in 250 mL Purified Water): 21 s | Appearance ([4]; 75 mg in 250 mL Purified Water, full cell: Clear, homogeneous, translucent to light yellow.): Clear, | % Released (IDR) ([5]; 0.01N 2HCl, t = 0 mins): 0% | % Released (IDR) ([5]; 0.01N 2HCl, t = 5 mins): 80% and 70% | % Released (IDR) ([5]; 0.01N 2HCl, t = 10 mins): 100% and 97% | % Released (IDR) ([5]; 0.01N 2HCl, t = 15 mins): 101% and 98% | % Released (IDR) ([5]; 0.01N 2HCl, t = 30 mins): 102% and 99% | % Released (IDR) ([5]; 0.01N 2HCl, t = 60 mins): 101% and 98% | % Released (IDR) ([5]; Phosphate buffer pH 6.8, t = 0 mins): 0% | % Released (IDR) ([5]; Phosphate buffer pH 6.8, t = 5 mins): 68% and 60% | % Released (IDR) ([5]; Phosphate buffer pH 6.8, t = 10 mins): 85% and 81% | % Released (IDR) ([5]; Phosphate buffer pH 6.8, t = 15 mins): 72% and 83% | % Released (IDR) ([5]; Phosphate buffer pH 6.8, t = 30 mins): 73% and 77% | % Released (IDR) ([5]; Phosphate buffer pH 6.8, t = 60 mins): 59% and 60% | % Released (IDR) ([5]; Water, t = 0 mins): 0% | % Released (IDR) ([5]; Water, t = 5 mins): 84% and 71% | % Released (IDR) ([5]; Water, t = 10 mins): 101% and 98% | % Released (IDR) ([5]; Water, t = 15 mins): 101% and 100% | % Released (IDR) ([5]; Water, t = 30 mins): 100% and 102% | % Released (IDR) ([5]; Water, t = 60 mins): 100%
